Read-outs that look alike come from different tables or passages of the source.
What was measured:
UGT1A9 = target: T1, UGT1A9 (Homo sapiens, UniProt O60656); assay: UGT1A9-catalyzed mycophenolic acid glucuronidation inhibition in pooled human liver microsomes; assay type: in vitro ADME; settings: 0.2 µM mycophenolic acid
T1 construct: using pooled human liver microsomes incubated with the cocktail of UGT substrates; tissue Corning Life Sciences 452161; host or cells: pooled human liver microsomes
T1 sequence (O60656 26-530): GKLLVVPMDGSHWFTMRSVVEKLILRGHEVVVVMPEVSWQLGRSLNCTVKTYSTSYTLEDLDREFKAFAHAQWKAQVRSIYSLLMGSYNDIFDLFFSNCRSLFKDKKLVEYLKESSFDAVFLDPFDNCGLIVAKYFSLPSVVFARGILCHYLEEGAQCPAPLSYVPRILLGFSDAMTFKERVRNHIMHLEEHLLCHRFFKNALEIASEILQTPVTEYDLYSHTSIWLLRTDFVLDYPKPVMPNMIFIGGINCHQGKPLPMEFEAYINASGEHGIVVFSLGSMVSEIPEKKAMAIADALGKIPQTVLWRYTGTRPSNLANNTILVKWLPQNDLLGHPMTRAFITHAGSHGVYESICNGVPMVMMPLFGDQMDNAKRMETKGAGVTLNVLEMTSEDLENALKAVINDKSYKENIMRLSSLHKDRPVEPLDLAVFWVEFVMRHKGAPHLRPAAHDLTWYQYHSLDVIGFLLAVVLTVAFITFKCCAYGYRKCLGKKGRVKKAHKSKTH
Procedure: The extents of aschantin on UGT1A1, UGT1A3, UGT1A4, UGT1A6, UGT1A9, and UGT2B7 were evaluated by LC-MS/MS, using pooled human liver microsomes incubated with the cocktail of UGT substrates. The method was modified from that of Joo et al..
The metabolites formed from the six UGT cocktail substrates were simultaneously measured using the LC-MS/MS method. […] The mass spectrometer was equipped with an ESI source and was operated in both positive and negative ion modes. […] Each metabolite was quantified via SRM in the negative ion (chenodeoxycholic acid 24-acyl-β-glucuronide, 567.2 > 391.0; mycophenolic acid glucuronide, 495.2 > 318.9; propofol glucuronide, 353.3 > 177.1) and positive ion (SN-38 glucuronide, 569.0 > 393.0; trifluoperazine glucuronide, 584.2 > 408.1; N-acetylserotonin-β-D-glucuronide, 395.2 > 219.0; naloxone 3-β-D-glucuronide, 504.0 > 310.0; meloxicam, 352.0 > 115.1) modes.

CYP2C9 = CYP2C9 (Homo sapiens, UniProt P11712); assay: CYP2C9-catalyzed diclofenac 4′-hydroxylase inhibition in pooled human liver microsomes; settings: for IC50: CYP2C9 diclofenac 4′-hydroxylase, 10 µM diclofenac
Procedure: (§1) The degrees of inhibition (the IC50 values) of aschantin toward CYP1A2, CYP2A6, CYP2C8, CYP2C9, CYP2C19, CYP2D6, and CYP3A4 were evaluated using pooled human liver microsomes employing a cocktail of CYP substrates and liquid chromatography-tandem mass spectrometry (LC-MS/MS). […] After 3 min pre-incubation at 37 °C, the reactions were initiated by addition of NADPH and incubation proceeded for 15 min at 37 °C in a shaking water bath. The reaction was stopped by placing the tubes on ice and adding 100 µL amounts of ice-cold methanol containing internal standards (^13C2,^15N-acetaminophen for acetaminophen and N-desethylamodiaquine; d9-1′-hydroxybufuralol for 4′-hydroxydiclofenac; and 7-hydroxycoumarin, 4′-hydroxy-mephenytoin, 1′-hydroxybufuralol, and 1′-hydroxymidazolam). Then the incubation mixtures were centrifuged at 13,000× g for 4 min at 4 °C. All assays were performed in triplicate and the average values were used in calculations.
(§2) To this end, we employed a tandem mass spectrometer (TSQ Quantum Access, Thermo Scientific, San Jose, CA, USA) coupled to a Nanospace SI-2 LC system (Shiseido, Tokyo, Japan). The column and autosampler temperatures were 50 °C and 6 °C, respectively. The mass spectrometer was equipped with an electrospray ionization (ESI) source and was operated in positive ion mode. The ESI source settings for metabolite ionization were as follows: capillary voltage, 4200 V; vaporizer temperature, 350 °C; capillary temperature 330 °C; sheath gas pressure, 35 psi; and auxiliary gas pressure, 15 psi. […] Analytical data were processed using Xcalibur® software (Thermo Scientific).
(§3) The apparent kinetic inhibitory potentials (the Ki values) were estimated from the fitted curves using Enzyme Kinetics version 1.1 (Systat Software Inc.).

CYP2A6 = target: T2, CYP2A6 (Homo sapiens, UniProt P11509); assay: CYP2A6-catalyzed coumarin 7-hydroxylase inhibition in pooled human liver microsomes
T2 sequence (P11509 1-494): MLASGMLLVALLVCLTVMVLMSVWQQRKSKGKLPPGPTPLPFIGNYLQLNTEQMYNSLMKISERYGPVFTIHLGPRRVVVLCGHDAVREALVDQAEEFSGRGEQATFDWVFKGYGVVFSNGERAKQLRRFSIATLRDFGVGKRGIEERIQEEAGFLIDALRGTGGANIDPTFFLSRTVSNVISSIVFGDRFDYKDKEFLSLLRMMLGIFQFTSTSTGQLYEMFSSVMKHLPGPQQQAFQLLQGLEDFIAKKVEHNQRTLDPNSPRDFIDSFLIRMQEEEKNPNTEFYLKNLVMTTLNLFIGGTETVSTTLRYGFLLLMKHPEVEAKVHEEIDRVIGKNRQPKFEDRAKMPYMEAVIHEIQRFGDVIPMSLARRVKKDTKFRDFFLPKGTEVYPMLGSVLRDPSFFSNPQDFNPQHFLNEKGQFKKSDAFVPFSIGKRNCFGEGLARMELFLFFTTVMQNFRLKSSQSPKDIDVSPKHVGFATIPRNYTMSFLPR
Procedure: as §1, §2, §3

CYP2B6 = target: T3, CYP2B6 (Homo sapiens, UniProt P20813); assay: CYP2B6-catalyzed bupropion hydroxylase inhibition in pooled human liver microsomes; assay type: in vitro ADME; settings: for IC50: CYP2B6 bupropion hydroxylase, 50 µM bupropion
T3 construct: tissue Corning Life Sciences 452161; host or cells: pooled human liver microsomes
T3 sequence (P20813 1-491): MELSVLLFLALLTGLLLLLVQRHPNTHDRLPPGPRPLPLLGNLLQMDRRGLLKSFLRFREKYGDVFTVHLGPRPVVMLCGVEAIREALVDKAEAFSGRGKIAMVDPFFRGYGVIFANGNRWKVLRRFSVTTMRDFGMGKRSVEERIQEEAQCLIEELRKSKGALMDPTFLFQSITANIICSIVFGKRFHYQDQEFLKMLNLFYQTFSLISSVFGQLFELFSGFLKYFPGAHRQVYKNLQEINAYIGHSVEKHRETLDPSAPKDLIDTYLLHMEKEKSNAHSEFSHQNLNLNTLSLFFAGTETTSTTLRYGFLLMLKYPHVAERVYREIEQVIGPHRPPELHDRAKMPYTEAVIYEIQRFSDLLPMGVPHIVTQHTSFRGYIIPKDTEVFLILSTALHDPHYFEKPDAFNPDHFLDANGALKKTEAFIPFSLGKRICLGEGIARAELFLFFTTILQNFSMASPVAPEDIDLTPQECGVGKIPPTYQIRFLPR
Procedure: The effects of aschantin on CYP2B6-catalyzed bupropion hydroxylase activity were evaluated using LC-MS/MS with pooled human liver microsomes. […] The reaction was initiated by adding bupropion. Hydroxybupropion levels were determined using the LC-MS/MS method described above; the SRM parameters were 256.1 > 238.0 for hydroxybupropion and 287.2 > 187.0 for d9-1′-hydroxybufuralol.

[1] = aschantin at 100 µM, human liver microsomes

Sequence of CYP2C9 (P11712 whole entry): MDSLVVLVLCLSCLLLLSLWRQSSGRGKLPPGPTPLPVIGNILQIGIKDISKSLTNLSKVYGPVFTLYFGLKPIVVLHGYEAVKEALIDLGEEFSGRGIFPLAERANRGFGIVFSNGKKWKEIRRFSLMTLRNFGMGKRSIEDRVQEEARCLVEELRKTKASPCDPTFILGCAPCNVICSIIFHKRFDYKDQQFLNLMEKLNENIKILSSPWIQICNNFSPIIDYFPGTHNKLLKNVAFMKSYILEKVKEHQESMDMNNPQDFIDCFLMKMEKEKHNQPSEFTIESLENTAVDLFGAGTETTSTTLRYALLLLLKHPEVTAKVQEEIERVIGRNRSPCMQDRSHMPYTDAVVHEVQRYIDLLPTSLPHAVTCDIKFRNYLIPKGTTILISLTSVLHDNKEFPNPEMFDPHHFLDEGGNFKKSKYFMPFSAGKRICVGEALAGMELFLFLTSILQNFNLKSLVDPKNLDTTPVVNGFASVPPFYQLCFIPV

IC50 (UGT1A9): 71 µM | IC50 (CYP2C9; IC50 No Pre-incubation, pooled human liver microsomes, no pre-incubation): 40.5 µM | IC50 (CYP2C9; IC50 With Pre-incubation, 30 min pre-incubation with microsomes and NADPH): 14.1 µM | IC50 shift at 0.5 h (CYP2C9; human, pooled human liver microsomes, pH 7.4, probe diclofenac (10 µM), 4′-hydroxylation): > 2.5 | IC50 (CYP2A6): > 100 µM | inhibition of CYP2A6-mediated coumarin 7-hydroxylation (CYP2A6; [1]): negligibly inhibited | IC50 (CYP2A6; read-out: IC50 With Pre-incubation, CYP2A6 coumarin 7-hydroxylase, 2.5 µM coumarin, 30 min pre-incubation with microsomes and NADPH): > 100 µM | IC50 (CYP2B6; 30 min pre-incubation with microsomes and NADPH, read-out: IC50 With Pre-incubation): 87.9 µM | IC50 (CYP2B6; pooled human liver microsomes, no pre-incubation, read-out: IC50 No Pre-incubation): > 100 µM | inhibition of CYP2B6-mediated bupropion hydroxylation (CYP2B6; [1]): negligibly inhibited
Compound: COc1cc([C@H]2OC[C@H]3[C@@H]2CO[C@@H]3c2ccc3c(c2)OCO3)cc(OC)c1OC [Aschantin]
